Like-named read-outs stand apart in the source and are kept apart here.

The values below come from US11655244B2, “Carbazole compounds and methods of use thereof” (GSNO Therapeutics, Inc, priority 2017, dated 2023).

Assay [1] deals with T1, GSNOR enzyme (Homo sapiens, UniProt P11766). Put plainly: GSNOR inhibition assay (rate of NADH consumption, 340 nm absorbance). The class given is biochemical. As for the experimental part:
The following compounds were also prepared based on the methods described herein, using the appropriate starting materials. Table 2a and Table 2b also provides the % GSNOR inhibition at 20 μM of compounds described herein. […] The buffer was 100 mM phosphate buffer (pH 7.4.) The rate of NADH consumption for each well was determined by ultraviolet spectroscopy. Plates were read on a Molecular Devices Spectra Max UV/Visible Spectrophotometer/plate reader and the change in 340 nm absorbance at 25° C. was recorded for each well at 10 sec intervals over the duration of the recording period (2˜5 minutes). The rate was measured from the linear portion of the curve. Final test compound concentration was 20 μM. The mean % inhibition from 3 test compound wells and 5 control wells was measured as the percentage of the mean no compound+enzyme−the mean no enzyme, no compound control.

Another assay concerns IL-6. Put plainly: LPS/cytokine assay (mouse inflammation assay), IL-6. It is filed as in vivo, CD-1 male mice. Particulars: for LPS/IL6 Lowest tested active: CD-1 male mice, IP or IV, cytokine typically 6 hrs after LPS. The method, then:
Table 2b also includes additional biological data of compounds described herein. The LPS/cytokine Assay was carried out in CD-1 male mice. The assay measured the level of various cytokines, including IL-6, IL-17, and IL-23, after induction by bacterial liposaccharide (LPS). Compounds were dosed by IP or IV routes of administration at varying times before and after LPS and the cytokine concentrations were measured at varying times, typically 6 hrs, after LPS by standard methods using ELISA kits.
BIOLOGICAL TESTING: Compounds 10 and 17 from Table 1 were tested in a mouse inflammation assay. Briefly, CD-1 mice were dosed with compound, 12 hrs before injecting mice I.P. with the potent cytokine inducer, bacterial lipopolysaccharide (LPS). The mice were euthanized 6 hrs after the LPS was injected and their serum prepared by standard methods. The concentration of IL-6 in the serum of each experimental animal was measured using an IL-6 ELISA kit from Enzo. The compounds tested were active.
This LPS/cytokine assay was carried out in healthy mice and measured the level of cytokine IL-6, IL-17, and 23 induction by LPS. Compounds are dosed (either orally (“p.o.”) or intravenously (“i.v.”) at varying times before and after LPS, and the cytokines are measured at varying times after LPS. The effect of the tested compounds (Table 5) on IL-6 release is shown in FIG. 7. The effect of the tested compounds (Table 6) on IL-17 an IL-23 release is shown in FIG. 11 and FIG. 12, respectively.

Assay [2] deals with T1, GSNOR enzyme. Put plainly: GSNOR inhibition assay (rate of NADH consumption, 340 nm absorbance). It is filed as biochemical. The note with it: Table 2b; read-out: IC50 Micromolar.
The test system of assay [3] is Bleomycin-induced idiopathic pulmonary fibrosis model in male C57BL/6 mice. Nature of the assay: Bleomycin-induced idiopathic pulmonary fibrosis model. The note with it: 100 mg/kg, p.o., b.i.d., from day 14 to 28. It is filed as in vivo. As for the experimental part:
Compound 17 was made-up fresh every 4 days. A required amount of the test compound was weighed in a glass vial and the purity factor was calculated. A stock solution of 1 mg/ml (10 mg/kg) was made in distilled water (pH 8) and the subsequent 3 and 1 mg/kg doses (concentrations) were obtained by serial dilution of the 1 mg/ml stock solution. A clear and transparent solution was observed. Animals were dosed with Compound 17 at 1 mg/kg, 3 mg/kg and 10 mg/kg, i.p (intraperitoneal), once daily from day 14 to 28.
Pirfenidone was weighed in a glass vial and suspended in 0.5% methyl cellulose to obtain a 10 mg/ml formulation. A clear homogenous suspension was observed. Animals were dosed with Pirfenidone at 100 mg/kg, p.o., b.i.d., from day 14 to 28.

Setting [4] is: Table 2b, test compound 20 uM, read-out: % GSNOR Inhibition at 20 uM.

T1 sequence (P11766 whole entry): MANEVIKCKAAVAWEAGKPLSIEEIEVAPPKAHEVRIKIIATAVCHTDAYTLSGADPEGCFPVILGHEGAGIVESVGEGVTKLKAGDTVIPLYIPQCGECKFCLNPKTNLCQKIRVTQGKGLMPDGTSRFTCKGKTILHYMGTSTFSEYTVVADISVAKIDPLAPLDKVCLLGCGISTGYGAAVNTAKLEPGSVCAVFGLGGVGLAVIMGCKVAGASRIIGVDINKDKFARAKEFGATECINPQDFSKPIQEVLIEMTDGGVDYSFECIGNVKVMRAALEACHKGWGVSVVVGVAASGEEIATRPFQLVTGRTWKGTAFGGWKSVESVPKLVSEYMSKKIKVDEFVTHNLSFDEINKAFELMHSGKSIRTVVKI

In the case of `N#CCCn1c2ccc(-n3ccnc3)cc2c2ccc(CCC(=O)O)cc21` [Compound 26, 3-(imidazol-1(H)-yl)-7-(2-carboxylethyl)-9(H)-(2-cyanoethyl) carbazole], the inhibition at 20 µM at GSNOR enzyme [1] (setting [4]) stood at 92.4%. In addition, in the assay with IL-6, the “LPS/IL6 Lowest tested active” value was determined as 0.3 mg/kg. Moreover, at GSNOR enzyme [2], the IC50 – broadly, the concentration needed to halve the response being measured – is < 1 µM.
As for `NC(=O)CCn1c2ccc(-n3ccnc3)cc2c2ccc(C(=O)O)cc21` [Compound 10, 9-(3-amino-3-oxopropyl)-6-(1H-imidazo-1-yl)-9H-carbazole-2-carboxylic acid], the inhibition at 20 µM worked out at 85% on GSNOR enzyme [1] (Table 2a, test compound 20 μM, pH 7.4, 25° C., read-out: % Inhibit. at 20 μM) and 75% on GSNOR enzyme [1] (setting [4]). In the assay with IL-6, the “LPS/IL6 Lowest tested active” value was 30 mg/kg. Also, the “IL-6 in serum after LPS (mouse inflammation assay)” value with IL-6 (dosed 12 hrs before LPS I.P., serum 6 hrs after LPS) is “active”. Further, at GSNOR enzyme [2], the IC50 was < 1 µM.
As for `Cc1ccc(=O)n(-c2ccccc2)c1` [Pirfenidone, reference compound], the “pulmonary fibrosis (Ashcroft score and percentage collagen proportionate area) vs disease control” value in assay [3] is recorded as “notable mitigation of pulmonary fibrosis”.
Take `N#CCCCCn1c2ccc(-n3ccnc3)cc2c2ccc(CCC(=O)O)cc21` [Compound 31]: the inhibition at 20 µM at GSNOR enzyme [1] (setting [4]) was found to be 92.9%. Moreover, in the assay with IL-6, the “LPS/IL6 Lowest tested active” value was 0.3 mg/kg. Besides, the IC50 at GSNOR enzyme [2] was < 1 µM.
On to `Cc1cc(C(N)=O)ccc1-n1c2ccc(-n3ccnc3)cc2c2ccc(CCC(=O)O)cc21` [Compound 21], for which the inhibition at 20 µM on GSNOR enzyme [1] (setting [4]) was determined as 93.6%. In addition, the “LPS/IL6 Lowest tested active” value in the assay on IL-6 is reported as 0.3 mg/kg. Further, the IC50 at GSNOR enzyme [2] is 1 to 5 µM.
For the compound `NC(=O)c1ccc(-n2c3ccc(-n4ccnc4)cc3c3ccc(CCC(=O)O)cc32)cc1` [Compound 20], the inhibition at 20 µM on GSNOR enzyme [1] (setting [4]) amounted to 88.9%. For the same compound, the “LPS/IL6 Lowest tested active” value in the assay on IL-6 is listed as 0.3 mg/kg. Also, the IC50 at GSNOR enzyme [2] was in the range of 1 to 5 µM.
